Source: patent US20080242870A1 (priority 2006, published 2008)
“And” between values parts separate entries of the source, which are not always exact repeats. Identical values can stand only once.

What was measured:
[1] = depending on the solvent
Method: (§2) Luminescence lifetimes were measured with an IBH time-correlated single photon counting (TCSPC) system equipped with an IBH Model TBX-04 Photon Detection Module. The excitation source for the TCSPC measurements was a pulsed LED (IBH NanoLED, 455 nm, 1.3 ns pulse duration or 403 nm, <200 ps pulse duration) with a repetition rate of 1 MHz. All data was analyzed by iterative reconvolution of the decay profile (10,000 counts at the peak channel) with the instrument response function using software provided by the instrument manufacturer.

[2] = Emission spectra of anthracene diimides at room temperature (Example 1); type: physicochemical; details: (p) peak, (s) shoulder
Method: (§1) Unless otherwise stated, all experiments used optically dilute solutions (Optical Density (OD)<0.2) at room temperature. […] Emission spectra were obtained with an Aminco-Bowman luminescence spectrometer (Series 2). The excitation was accomplished with a 150 W Xe lamp optically coupled to a monochrometer (+2 nm). The emission was collected at […] and passed through a second monochrometer (±2 nm). Luminescence was measured with a photomultiplier tube (PMT).

[3] = Stokes shift / Lippert-Mataga solvatochromic analysis; type: physicochemical
Description: The solvatochromic response of the anthracene diimides to photoexcitation was further characterized by analysis of the Stokes' shift and Lippert-Mataga polarity parameter,
where v is the Stokes' shift in wavenumbers, h is Plank's constant, c is the speed of light, ∈0 is the permittivity of free space, Δμ is the change in the dipole moment upon excitation, α^3 is the molecule's volume, as is the solvent dielectric constant, and n is the solvent refractive index. This relationship quantifies the change in dipole between the ground state and excited state of a molecule and, when used with the calculated ground state dipole, the magnitude of the excited state dipole moment may be estimated. Each line represents a solvatochromic emission component of the corresponding diimide. All other bands were not solvatochromic and not included in the analysis. For example, the emission spectra of DPO (35) in the selection of solvents were nearly identical and could not be used in the Lippert-Mataga correlations. DP (37) had two components in the emission profiles; a higher energy band that quickly disappeared with increasing solvent polarity and a lower energy component that red-shifted with increasing solvent polarity.

[4] = Radiative quantum yield against standards (Example 1); type: physicochemical
Method: as §1

[5] = Sub-ambient (77 K) emission in 2-methyltetrahydrofuran; type: physicochemical; details: for emission bands: 2-methyltetrahydrofuran, 405 nm excitation
Method: FIGS. 7a and 7b show normalized emission spectra for the diphenyl anthracene diimides (top) and the tetraphenyl anthracene diimides (bottom) at 77° K in 2-methyltetrahydrofuran and 405 nm excitation.
In an attempt to better understand the excited state properties of the diphenyl and tetraphenyl anthracene diimides, sub-ambient (77 K) emission experiments were performed, with the results shown in FIGS. 7a and 7b. In the case of the diphenyl derivatives, DPO (35), DP (37), and DC (39) display similar emission spectra with overlapping bands near 434 nm, […], and 492 nm. Although the peak ratios differ slightly, the band shapes and positions are nearly identical. […] Similar results are observed for the tetraphenyl series. Here, TPO (40) and TP (41) display spectral features analogous to DPO (35), DP (37), and DC (39), but at lower energy.

[6] = Absorption spectra of anthracene diimides in solvents of increasing polarity (Example 1); type: physicochemical
[7] = Luminescence lifetime by TCSPC (Example 1); type: physicochemical; details: for 1τ: TCSPC 370 nm pulsed LED
Method: as §2

[8] = in toluene
[9] = in toluene; remark: listed apart in the source

N,N′-Bis(m-(boronic acid)phenyl)-1,5-bis(phenyl)anthracene-2,3,6,7-tetracarboxyl diimide
lifetime (single exponential) [1]: 5-5.5 ns

CCCCCCOc1ccc(-n2c(=O)c3cc4cc5c(-c6ccccc6)c6c(=O)n(-c7ccc(OCCCCCC)cc7)c(=O)c6cc5cc4c(-c4ccccc4)c3c2=O)cc1 [DP]
Em. λmax ([2]; Acetone (20.1)): 500(s) nm and 584(p) nm | Em. λmax ([2]; C2H4Cl2 (10.7)): 502(s) nm and 557(p) nm | Em. λmax ([2]; CHCl3 (4.8)): 536(p) nm and 501(p) nm | Em. λmax ([2]; Ethyl Acetate (6.02)): 500(s) nm and 555(p) nm | Em. λmax ([2]; THF (7.6)): 502(s) nm and 562(p) nm | Em. λmax ([2]; Toluene (2.4)): 497(p) nm and 525(p) nm | slope of Lippert plot ([3]; second (lower energy) emission component, R^2=0.99): 6,600.2 cm^−1 | Φr ([4]; Acetone (20.1)): 0.0082 | Φr ([4]; C2H4Cl2 (10.7)): 0.020 | Φr ([4]; CHCl3 (4.8)): 0.028 | Φr ([4]; Ethyl Acetate (6.02)): 0.015 | Φr ([4]; THF (7.6)): 0.017 | Φr ([4]; Toluene (2.4)): 0.066 | Φr ([4]; Toluene (2.4), listed as DP (37)): 0.18 | emission bands ([5]; listed as DP (37)): ~434 nm and ~461 nm and ~492 nm | Abs. λmax ([6]; Acetone (20.1)): 423 nm | Abs. λmax ([6]; C2H4Cl2 (10.7)): 426 nm | Abs. λmax ([6]; CHCl3 (4.8)): 428 nm | Abs. λmax ([6]; Ethyl Acetate (6.02)): 421 nm | Abs. λmax ([6]; THF (7.6)): 422 nm | Abs. λmax ([6]; Toluene (2.4)): 422 nm | 1τ ([7]; Acetone (20.1)): <0.20 ns | 1τ ([7]; C2H4Cl2 (10.7)): <0.20 ns | 1τ ([7]; CHCl3 (4.8)): 0.38 ns | 1τ ([7]; Ethyl Acetate (6.02)): <0.20 ns | 1τ ([7]; THF (7.6)): <0.20 ns | 1τ ([7]; Toluene (2.4)): 0.62 ns | lifetime ([7]; in ethyl acetate and solvents of higher polarity): below 200 ps | lifetime ([7]; in toluene): 620 ps

N,N′-Bis(methyl 18-crown-6)-1,5-bis(phenyl)anthracene-2,3,6,7-tetracarboxyl diimide
extinction coefficient, ∈ [8]: 12,500 M^−1 cm^−1 | quantum yield, Φ [9]: 0.37 | lifetime (single exponential) [1]: 5.5-6.5 ns

CCCCCCOc1ccc(-n2c(=O)c3cc4cc5c(-c6ccc(OC)cc6)c6c(=O)n(-c7ccc(OCCCCCC)cc7)c(=O)c6cc5cc4c(-c4ccc(OC)cc4)c3c2=O)cc1 [DM]
Em. λmax ([2]; ACN (38.8)): 463(p) nm and 487(s) nm and 551(p) nm | Em. λmax ([2]; Acetone (20.1)): 463(p) nm and 492(p) nm and 554(p) nm | Em. λmax ([2]; C2H4Cl2 (10.7)): 463(p) nm and 490(s) nm and 526(p) nm | Em. λmax ([2]; CHCl3 (4.8)): 491(s) nm and 465(p) nm | Em. λmax ([2]; Ethyl Acetate (6.02)): 463(p) nm and 488(p) nm and 526(p) nm | Em. λmax ([2]; THF (7.6)): 463(p) nm and 494(p) nm and 538(p) nm | Em. λmax ([2]; Toluene (2.4)): 462(p) nm and 488(s) nm | Φr ([4]; ACN (38.8)): 0.0087 | Φr ([4]; Acetone (20.1)): 0.011 | Φr ([4]; C2H4Cl2 (10.7)): 0.030 | Φr ([4]; CHCl3 (4.8)): 0.064 | Φr ([4]; Ethyl Acetate (6.02)): 0.028 | Φr ([4]; THF (7.6)): 0.021 | Φr ([4]; Toluene (2.4)): 0.18 | red shift of emission spectrum ([5]; relative to the other members of the series): 13 nm | Abs. λmax ([6]; ACN (38.8)): 427 nm | Abs. λmax ([6]; Acetone (20.1)): 426 nm | Abs. λmax ([6]; C2H4Cl2 (10.7)): 430 nm | Abs. λmax ([6]; CHCl3 (4.8)): 431 nm | Abs. λmax ([6]; Ethyl Acetate (6.02)): 425 nm | Abs. λmax ([6]; THF (7.6)): 426 nm | Abs. λmax ([6]; Toluene (2.4)): 428 nm | 1τ ([7]; C2H4Cl2 (10.7)): 0.34 ns | 1τ ([7]; CHCl3 (4.8)): 0.59 ns | 1τ ([7]; Toluene (2.4)): 1.25 ns

CCCCCCOc1ccc(-n2c(=O)c3cc4cc5c(-c6ccc(C#N)cc6)c6c(=O)n(-c7ccc(OCCCCCC)cc7)c(=O)c6cc5cc4c(-c4ccc(C#N)cc4)c3c2=O)cc1 [DC]
Em. λmax ([2]; ACN (38.8)): 600(p) nm | Em. λmax ([2]; Acetone (20.1)): 599(p) nm | Em. λmax ([2]; C2H4Cl2 (10.7)): 571(p) nm | Em. λmax ([2]; CHCl3 (4.8)): 555(p) nm and 504(s) nm | Em. λmax ([2]; Ethyl Acetate (6.02)): 573(p) nm | Em. λmax ([2]; THF (7.6)): 579(p) nm | Em. λmax ([2]; Toluene (2.4)): 505(s) nm and 543(p) nm | calculated dipole change (Δμ) ([3]; Lippert-Mataga correlation): 31.1 D | Stokes' shift of charge transfer excited state ([3]; from toluene to acetonitrile): 95 nm | Φr ([4]; ACN (38.8)): 0.0051 | Φr ([4]; Acetone (20.1)): 0.0062 | Φr ([4]; C2H4Cl2 (10.7)): 0.017 | Φr ([4]; CHCl3 (4.8)): 0.025 | Φr ([4]; Ethyl Acetate (6.02)): 0.012 | Φr ([4]; THF (7.6)): 0.013 | Φr ([4]; Toluene (2.4)): 0.046 | emission bands ([5]; listed as DC (39)): ~434 nm and ~461 nm and ~492 nm | Abs. λmax ([6]; ACN (38.8)): 423 nm | Abs. λmax ([6]; Acetone (20.1)): 423 nm | Abs. λmax ([6]; C2H4Cl2 (10.7)): 425 nm | Abs. λmax ([6]; CHCl3 (4.8)): 425 nm | Abs. λmax ([6]; Ethyl Acetate (6.02)): 418 nm | Abs. λmax ([6]; THF (7.6)): 420 nm | Abs. λmax ([6]; Toluene (2.4)): 417 nm | 1τ ([7]; ACN (38.8)): <0.20 ns | 1τ ([7]; Acetone (20.1)): <0.20 ns | 1τ ([7]; C2H4Cl2 (10.7)): 0.21 ns | 1τ ([7]; CHCl3 (4.8)): 0.27 ns | 1τ ([7]; Ethyl Acetate (6.02)): <0.20 ns | 1τ ([7]; THF (7.6)): <0.20 ns | 1τ ([7]; Toluene (2.4)): 0.39 ns
